How the values were obtained:
[1] = test system: Cabbage Looper (Trichoplusia ni); assay: Bioassay on Cabbage Looper (CL), 128-well diet tray assay; type: in vivo; settings: 168 h, percent mortality of second instar larvae, 50 μg/cm^2 on artificial diet, five to seven days, 25° C., read-out: CL Rating
Procedure: Certain molecules disclosed in this document were tested against BAW, CEW and CL using procedures described in the following examples. In the reporting of the results, the “BAW & CEW & CL Rating Table” was used (See Table Section).
Bioassays on CL (Trichoplusia ni)
Bioassays on CL were conducted using a 128-well diet tray assay. One to five second instar CL larvae were placed in each well (3 mL) of the diet tray that had been previously filled with 1 mL of artificial diet to which 50 μg/cm^2 of the test compound (dissolved in 50 μL of 90:10 acetone-water mixture) had been applied (to each of eight wells) and then allowed to dry. Trays were covered with a clear self-adhesive cover, and held at 25° C., 14:10 light-dark for five to seven days. Percent mortality was recorded for the larvae in each well; activity in the eight wells was then averaged.
“Table 4: Assay Results Part 2” (See Table Section).

[2] = test system: Beet Armyworm (Spodoptera exigua); assay: Bioassay on Beet Armyworm (BAW), 128-well diet tray assay; type: in vivo; settings: for pest or weed control at 50 µg/cm2, 50 µg/cm2: Spodoptera exigua, 168 h, percent mortality of second instar larvae, 50 μg/cm^2 on artificial diet, five to seven days, 25° C., read-out: BAW Rating; for BAW Rating: Table 3, Assays Results Part 1

SMILES	pest or weed control at 50 µg/cm2, 50 µg/cm2 [1]	pest or weed control at 50 µg/cm2, 50 µg/cm2 [2]	BAW Rating [2]
C[C@@H](NC(=O)c1ccc(/C=C/C(c2cc(Cl)c(Cl)c(Cl)c2)C(F)(F)F)cc1C(F)(F)F)C(=O)NCC(F)(F)F (mixture of isomers) [Compound F20]	50 to 100%	50 to 100%	
CC(C)(NC(=O)c1ccc(/C=C/C(c2cc(Cl)c(Cl)c(Cl)c2)C(F)(F)F)cc1Cl)C(=O)NCC(F)(F)F (stereo not drawn) [Compound F2]	50 to 100%	50 to 100%	
Cc1cc(/C=C/C(c2cc(Cl)c(Cl)c(Cl)c2)C(F)(F)F)ccc1C(=O)NC(C)(C)C(=O)NCC(F)(F)F (stereo not drawn) [Compound F3]	50 to 100%	50 to 100%	
CC(C)(NC(=O)c1ccc(/C=C/C(c2cc(Cl)c(Cl)c(Cl)c2)C(F)(F)F)cc1C(F)(F)F)C(=O)NCC(F)(F)F (stereo not drawn) [Compound F4]	50 to 100%	50 to 100%	
C[C@H](NC(=O)c1ccc(/C=C/C(c2cc(Cl)c(Cl)c(Cl)c2)C(F)(F)F)cc1Br)C(=O)NCC(F)(F)F (stereo partly drawn) [Compound F5]	50 to 100%	50 to 100%	
C[C@@H](NC(=O)c1ccc(/C=C/C(c2cc(Cl)c(Cl)c(Cl)c2)C(F)(F)F)cc1Br)C(=O)NCC(F)(F)F (stereo partly drawn) [Compound F6]	50 to 100%	50 to 100%	
Cc1cc(/C=C/C(c2cc(Cl)c(Cl)c(Cl)c2)C(F)(F)F)ccc1C(=O)N[C@H](C)C(=O)NCC(F)(F)F (stereo partly drawn) [Compound F7]	50 to 100%	50 to 100%	
CC[C@H](NC(=O)c1ccc(/C=C/C(c2cc(Cl)c(Cl)c(Cl)c2)C(F)(F)F)cc1Cl)C(=O)NCC(F)(F)F (stereo partly drawn) [Compound F23]	50 to 100%		
Cc1cc(/C=C/C(c2cc(Cl)c(Cl)c(Cl)c2)C(F)(F)F)cc(C#N)c1-n1cncn1 (stereo not drawn) [DC45]			A (50-100)
N#Cc1cc(/C=C\C(c2cc(Cl)c(F)c(Cl)c2)C(F)(F)F)ccc1-n1cncn1 (stereo not drawn) [DC46]			A (50-100)
FC(F)(F)C(/C=C/c1ccc(-n2cncn2)c(Br)c1)c1cc(Cl)cc(Cl)c1 (stereo not drawn) [DC47]			A (50-100)
Fc1cc(/C=C/C(c2cc(Cl)cc(Cl)c2)C(F)(F)F)ccc1-n1cncn1 (stereo not drawn) [DC48]			A (50-100)
FC(F)(F)C(/C=C/c1ccc(-n2cncn2)c(Cl)c1)c1cc(Cl)c(Cl)c(Cl)c1 (stereo not drawn) [DC49]			A (50-100)
FC(F)(F)C(/C=C/c1ccc(-n2cncn2)c(Cl)c1)c1cc(Cl)cc(Cl)c1 (stereo not drawn) [DC50]			A (50-100)
FC(F)(F)c1cc(/C=C/C(c2cc(Cl)cc(Cl)c2)C(F)(F)F)ccc1-n1cncn1 (stereo not drawn) [DC51]			A (50-100)
CNc1cc(/C=C/C(c2cc(Cl)cc(Cl)c2)C(F)(F)F)ccc1-n1cncn1 (stereo not drawn) [DC57, (E)-5-(3-(3,5-Dichlorophenyl)-4,4,4-trifluorobut-1-en-1-yl)-N-methyl-2-(1H-1,2,4-triazol-1-yl)aniline]			A (50-100)
CCOC(=O)c1cc(/C=C/C(c2cc(Cl)cc(Cl)c2)C(F)(F)F)ccc1-n1cncn1 (stereo not drawn) [DC60]			A (50-100)
Cc1cc(/C=C/C(c2cc(Cl)cc(Cl)c2)C(F)(F)F)ccc1-n1cncn1 (stereo not drawn) [DC62]			A (50-100)
Cc1cc(/C=C/C(c2cc(Cl)c(Cl)c(Cl)c2)C(F)(F)F)ccc1-n1cncn1 (stereo not drawn) [DC63]			A (50-100)
FC(F)(F)C(/C=C/c1ccc(-n2cncn2)cc1Cl)c1cc(Cl)c(Cl)c(Cl)c1 (stereo not drawn) [DC66]			A (50-100)
FC(F)(F)C(/C=C/c1ccc(-n2cncn2)cc1Cl)c1cc(Cl)cc(Cl)c1 (stereo not drawn) [DC67]			A (50-100)
C/C(=C\C(c1cc(Cl)cc(Cl)c1)C(F)(F)F)c1ccc(-n2cncn2)cc1 (stereo not drawn) [DC68, (E)-1-(4-(4-(3,5-Dichlorophenyl)-5,5,5-trifluoropent-2-en-2-yl)phenyl)-1H-1,2,4-triazole]			A (50-100)
COC(/C=C/c1ccc(-n2cncn2)cc1)(c1cc(Cl)cc(Cl)c1)C(F)(F)F (stereo not drawn) [DC70, (E)-1-(4-(3-(3,5-Dichlorophenyl)-4,4,4-trifluoro-3-methoxybut-1-en-1-yl)phenyl)-1H-1,2,4-triazole]			A (50-100)

From patent publication US9226500B2, “Pesticidal compositions and processes related thereto” (Dow AgroSciences LLC, priority 2012, dated 2016)
